Measurements published in patent US20250270213A1, “PI3Ka INHIBITORS” (Synnovation Therapeutics, Inc., priority 2022, published 2025).

What follows are compounds tested on T47D (PIK3CA H1047R) cells (assay: pS473 AKT assay with 2.5% FBS, T47D cells). Details: Homo sapiens, pSer473 AKT, DMEM with 2.5% FBS, 2 h treatment, read-out: T47D_IC50.
Type: cell-based
How it was run: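 T47D (PIK3CA H1047R) cells were switched to DMEM with 2.5% FBS and exposed to compounds for 2 h. After paraformaldehyde fixation, pSer473 AKT was detected by in-cell ELISA (rabbit primary, HRP anti-rabbit secondary, chemiluminescence); IC50 values were fitted from the concentration series.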

IC50, < 1000 nM:
Cc1cc(C(C)Nc2ccc(Cl)nc2N2CCC(O)CC2)c2c(c1)c(=O)n(C)c1c2cnn1C1CCN(C)CC1 (stereo not drawn) [Compound 167, 9-[1-[[6-chloro-2-(4-hydroxy-1-piperidyl)-3-pyridyl]amino]ethyl]-4,7-dimethyl-3-(1-methyl-4-piperidyl)pyrazolo[3,4-c]isoquinolin-5-one]
Cc1cc(C(C)Nc2ccc(Cl)nc2-c2ccncc2F)c2c(c1)c(=O)n(C)c1c2cnn1C1CCN(C)CC1 (stereo not drawn) [Compound 168, 9-[1-[[6-chloro-2-(3-fluoro-4-pyridyl)-3-pyridyl]amino]ethyl]-4,7-dimethyl-3-(1-methyl-4-piperidyl)pyrazolo[3,4-c]isoquinolin-5-one]
Cc1cc(C(C)Nc2ccc(Cl)nc2-c2cccnc2)c2c(c1)c(=O)n(C)c1c2cnn1C1CCN(C)CC1 (stereo not drawn) [Compound 169, 9-[1-[[6-chloro-2-(3-pyridyl)-3-pyridyl]amino]ethyl]-4,7-dimethyl-3-(1-methyl-4-piperidyl)pyrazolo[3,4-c]isoquinolin-5-one]
CNC(=O)c1ccc(-c2nc(C)ccc2NC(C)c2cc(C)cc3c(=O)n(C)c4c(cnn4C4CCN(C)CC4)c23)cn1 (stereo not drawn) [Compound 170]
Cc1cc(C(C)Nc2ccc(Cl)nc2-c2ccn(C)c(=O)c2)c2c(c1)c(=O)n(C)c1c2cnn1C1CCN(C)CC1 (stereo not drawn) [Compound 171, 9-[1-[[6-chloro-2-(1-methyl-2-oxo-4-pyridyl)-3-pyridyl]amino]ethyl]-4,7-dimethyl-3-(1-methyl-4-piperidyl)pyrazolo[3,4-c]isoquinolin-5-one]
Cc1cc(C(C)Nc2ccc(Cl)nc2-c2cnn(C)c2)c2c(c1)c(=O)n(C)c1c2cnn1C1CCN(CC(C)(C)O)CC1 (stereo not drawn) [Compound 172, 9-[1-[[6-Chloro-2-(1-methylpyrazol-4-yl)-3-pyridyl]amino]ethyl]-3-[1-(2-hydroxy-2-methyl-propyl)-4-piperidyl]-4,7-dimethyl-pyrazolo[3,4-c]isoquinolin-5-one]
Cc1cc(C(C)Nc2ccc(Cl)nc2-c2cnn(C)c2)c2c(c1)c(=O)n(C)c1c2cnn1C1CCN(C[C@@H](C)O)CC1 (stereo partly drawn) [Compound 173, 9-[1-[[6-chloro-2-(1-methylpyrazol-4-yl)-3-pyridyl]amino]ethyl]-3-[1-[(2R)-2-hydroxypropyl]-4-piperidyl]-4,7-dimethyl-pyrazolo[3,4-c]isoquinolin-5-one]
Cc1cc(C(C)Nc2ccc(Cl)nc2-c2cnn(C)c2)c2c(c1)c(=O)n(C)c1c2cnn1C1CCN(C[C@H](C)O)CC1 (stereo partly drawn) [Compound 174, 9-[1-[[6-chloro-2-(1-methylpyrazol-4-yl)-3-pyridyl]amino]ethyl]-3-[1-[(2S)-2-hydroxypropyl]-4-piperidyl]-4,7-dimethyl-pyrazolo[3,4-c]isoquinolin-5-one]
Cc1cc(C(C)Nc2ccc(Cl)nc2-c2ncn(C)n2)c2c(c1)c(=O)n(C)c1c2cnn1C1CCN(CC(C)(C)O)CC1 (stereo not drawn) [Compound 175, 9-(1-((6-chloro-2-(1-methyl-1H-1,2,4-triazol-3-yl)pyridin-3-yl)amino)ethyl)-3-(1-(2-hydroxy-2-methylpropyl)piperidin-4-yl)-4,7-dimethyl-3,4-dihydro-5H-pyrazolo[3,4-c]isoquinolin-5-one]
Cc1cc(C(C)Nc2ccc(Cl)nc2-c2ncn(C)n2)c2c(c1)c(=O)n(C)c1c2cnn1C1CCNCC1 (stereo not drawn) [Compound 176, 9-(1-((6-Chloro-2-(1-methyl-1H-1,2,4-triazol-3-yl)pyridin-3-yl)amino)ethyl)-4,7-dimethyl-3-(piperidin-4-yl)-3,4-dihydro-5H-pyrazolo[3,4-c]isoquinolin-5-one]
Cc1cc(C(C)Nc2ccc(Cl)nc2-c2ncn(C)n2)c2c(c1)c(=O)n(C)c1c2cnn1C1CCN(CCO)CC1 (stereo not drawn) [Compound 177, 9-[1-[[6-Chloro-2-(1-methyl-1,2,4-triazol-3-yl)-3-pyridyl]amino]ethyl]-3-[1-(2-hydroxyethyl)-4-piperidyl]-4,7-dimethyl-pyrazolo[3,4-c]isoquinolin-5-one]
Cc1cc(C(C)Nc2ccc(Cl)nc2-c2ncn(C)n2)c2c(c1)c(=O)n(C)c1c2cnn1C1CCN(Cc2nccn2C)CC1 (stereo not drawn) [Compound 178, 9-(1-((6-chloro-2-(1-methyl-1H-1,2,4-triazol-3-yl)pyridin-3-yl)amino)ethyl)-4,7-dimethyl-3-(1-((1-methyl-1H-imidazol-2-yl)methyl)piperidin-4-yl)-3,4-dihydro-5H-pyrazolo[3,4-c]isoquinolin-5-one]
Cc1cc(C(C)Nc2ccc(Cl)nc2-c2ncn(C)n2)c2c(c1)c(=O)n(C)c1c2cnn1C1CCN(C2COC2)CC1 (stereo not drawn) [Compound 179, 9-(1-((6-chloro-2-(1-methyl-1H-1,2,4-triazol-3-yl)pyridin-3-yl)amino)ethyl)-4,7-dimethyl-3-(1-(oxetan-3-yl)piperidin-4-yl)-3,4-dihydro-5H-pyrazolo[3,4-c]isoquinolin-5-one]
Cc1cc(C(C)Nc2ccc(Cl)nc2-c2ncn(C)n2)c2c(c1)c(=O)n(C)c1c2cnn1C1CCN(CCC#N)CC1 (stereo not drawn) [Compound 180, 3-[4-[9-[1-[[6-Chloro-2-(1-methyl-1,2,4-triazol-3-yl)-3-pyridyl]amino]ethyl]-4,7-dimethyl-5-oxo-pyrazolo[3,4-c]isoquinolin-3-yl]-1-piperidyl]propanenitrile]
Cc1cc(C(C)Nc2ccc(Cl)nc2-c2ncn(C)n2)c2c(c1)c(=O)n(C)c1c2cnn1C1CCN(CC(F)F)CC1 (stereo not drawn) [Compound 181, 9-(1-((6-Chloro-2-(1-methyl-1H-1,2,4-triazol-3-yl)pyridin-3-yl)amino)ethyl)-3-(1-(2,2-difluoroethyl)piperidin-4-yl)-4,7-dimethyl-3,4-dihydro-5H-pyrazolo[3,4-c]isoquinolin-5-one]
CC(=O)N1CCC(n2ncc3c4c(C(C)Nc5ccc(Cl)nc5-c5cnn(C)c5)cc(C)cc4c(=O)n(C)c32)CC1 (stereo not drawn) [Compound 182, 3-(1-Acetylpiperidin-4-yl)-9-(1-((6-chloro-2-(1-methyl-1H-pyrazol-4-yl)pyridin-3-yl)amino)ethyl)-4,7-dimethyl-3,4-dihydro-5H-pyrazolo[3,4-c]isoquinolin-5-one]
Cc1cc(C(C)Nc2ccc(Cl)nc2N2CCC(O)CC2)c2c(c1)c(=O)n1c3c2cnn3CCC1 (stereo not drawn) [Compound 291, 10-(1-((6-chloro-2-(4-hydroxypiperidin-1-yl)pyridin-3-yl)amino)ethyl)-8-methyl-4,5-dihydro-3H,6H-2,2a,5a-triazaaceanthrylen-6-one]
CNC(=O)C1CCN(c2nc(Cl)ccc2NC(C)c2cc(C)cc3c(=O)n4c5c(cnn5CCC4)c23)CC1 (stereo not drawn) [Compound 292, 1-(6-chloro-3-((1-(8-methyl-6-oxo-4,5-dihydro-3H,6H-2,2a,5a-triazaaceanthrylen-10-yl)ethyl)amino)pyridin-2-yl)-N-methylpiperidine-4-carboxamide]
CC(=O)N1CCN(c2nc(Cl)ccc2NC(C)c2cc(C)cc3c(=O)n4c5c(cnn5CCC4)c23)CC1 (stereo not drawn) [Compound 293, 10-(1-((2-(4-acetylpiprerazin-1-yl)-6-chloropyridin-3-yl)amino)ethyl)-8-methyl-4,5-dihydro-3H,6H-2,2a,5a-triazaaceanthrylen-6-one]
Cc1cc(C(C)Nc2ccc(Cl)nc2-c2nnco2)c2c(c1)c(=O)n1c3c2cnn3CCC1 (stereo not drawn) [Compound 294, 10-(1-((6-chloro-2-(1,3,4-oxadiazol-2-yl)pyridin-3-yl)amino)ethyl)-8-methyl-4,5-dihydro-3H,6H-2,2a,5a-triazaaceanthrylen-6-one]
Cc1cc(C(C)Nc2ccc(Cl)nc2-c2ncn(C)n2)c2c(c1)c(=O)n1c3c2cnn3CCC1 (stereo not drawn) [Compound 296, 10-(1-((6-chloro-2-(1-methyl-1H-1,2,4-triazol-3-yl)pyridin-3-yl)amino)ethyl)-8-methyl-4,5-dihydro-3H,6H-2,2a,5a-triazaaceanthrylen-6-one]
Cc1cc(C(C)Nc2ccc(Cl)nc2-c2ncn(CCO)n2)c2c(c1)c(=O)n1c3c2cnn3CCC1 (stereo not drawn) [Compound 297, 10-(1-((6-chloro-2-(1-(2-hydroxyethyl)-1H-1,2,4-triazol-3-yl)pyridin-3-yl)amino)ethyl)-8-methyl-4,5-dihydro-3H,6H-2,2a,5a-triazaaceanthrylen-6-one]
Cc1cc(C(C)Nc2ccc(Cl)nc2-c2nnn(C)n2)c2c(c1)c(=O)n1c3c2cnn3CCC1 (stereo not drawn) [Compound 298, 10-(1-((6-chloro-2-(2-methyl-2H-tetrazol-5-yl)pyridin-3-yl)amino)ethyl)-8-methyl-4,5-dihydro-3H,6H-2,2a,5a-triazaaceanthrylen-6-one]
Cc1cc(C(C)Nc2ccc(Cl)nc2-c2cnn(C3CCOCC3)c2)c2c(c1)c(=O)n1c3c2cnn3CCC1 (stereo not drawn) [Compound 299, 10-(1-((6-chloro-2-(1-(tetrahydro-2H-pyran-4-yl)-1H-pyrazol-4-yl)pyridin-3-yl)amino)ethyl)-8-methyl-4,5-dihydro-3H,6H-2,2a,5a-triazaaceanthrylen-6-one]
Cc1cc(C(C)Nc2ccc(Cl)nc2-c2cnn(CCO)c2)c2c(c1)c(=O)n1c3c2cnn3CCC1 (stereo not drawn) [Compound 300, 10-(1-((6-chloro-2-(1-(2-hydroxyethyl)-1H-pyrazol-4-yl)pyridin-3-yl)amino)ethyl)-8-methyl-4,5-dihydro-3H,6H-2,2a,5a-triazaaceanthrylen-6-one]
Cc1cc(C(C)Nc2ccc(Cl)nc2-c2cnn(C3CCN(C)CC3)c2)c2c(c1)c(=O)n1c3c2cnn3CCC1 (stereo not drawn) [Compound 301]
Cc1cc(C(C)Nc2ccc(Cl)nc2-c2cnn(C3CCCN(C)C3)c2)c2c(c1)c(=O)n1c3c2cnn3CCC1 (stereo not drawn) [Compound 302]
